Columns and labels:
[1] = system: antibodies in sera from SARS patients (sera 1a, 1b, 2, 6, 37, 62, London, SARS-yellow, SARS-green); type: binding, human; parameters: Binding of serum 6 to linear peptides of protein X1 of SARS-CoV Urbani / Binding of serum 37 to linear peptides of protein X1 of SARS-CoV Urbani / Binding of serum 6 to looped/cyclic peptide (PEPSCAN-ELISA) / Binding of serum 37 to looped/cyclic peptide (PEPSCAN-ELISA) / Binding of serum 37 to looped/cyclic peptides of protein X1 of SARS-CoV Urbani / Binding of serum 6 to linear peptides of protein X2 / Binding of serum 37 to linear peptides of protein X2 / Binding of serum 37 to looped/cyclic peptides of protein X2 of SARS-CoV Urbani / Binding of serum 6 to linear peptides of protein M of SARS-CoV Urbani / Binding of serum 37 to linear peptides of protein M of SARS-CoV Urbani / Binding of serum 6 to looped/cyclic peptides of protein M of SARS-CoV Urbani / Binding of serum 37 to looped/cyclic peptides of protein M of SARS-CoV Urbani / Binding of serum 6 to linear peptides of protein X3 of SARS-CoV Urbani / Binding of serum 37 to linear peptides of protein X3 of SARS-CoV Urbani / Binding of serum 37 to looped/cyclic peptides of protein X3 of SARS-CoV Urbani / Binding of serum 6 to linear peptides of protein X4 of SARS-CoV Urbani / Binding of serum 37 to linear peptides of protein X4 of SARS-CoV Urbani / Binding of serum 37 to looped/cyclic peptides of protein X4 of SARS-CoV Urbani / Binding of serum 6 to linear peptides of protein X5 of SARS-CoV Urbani / Binding of serum 37 to linear peptides of protein X5 of SARS-CoV Urbani / Binding of serum 37 to looped/cyclic peptides of protein X5 of SARS-CoV Urbani / Binding of serum 6 to linear peptides of protein N of SARS-CoV Urbani / Binding of serum 37 to linear peptides of protein N of SARS-CoV Urbani / Binding of serum 6 to linear peptide (PEPSCAN-ELISA) / Binding of serum 1a to looped/cyclic peptides of protein N of SARS-CoV Urbani / Binding of serum 1b to looped/cyclic peptides of protein N of SARS-CoV Urbani / Binding of serum 2 to looped/cyclic peptides of protein N of SARS-CoV Urbani / Binding of serum 6 to looped/cyclic peptides of protein N of SARS-CoV Urbani / Binding of serum 37 to looped/cyclic peptides of protein N of SARS-CoV Urbani / Binding of serum 62 to looped/cyclic peptides of protein N of SARS-CoV Urbani / Binding of serum London to looped/cyclic peptides of protein N of SARS-CoV Urbani / Binding of serum SARS-green to looped/cyclic peptides of protein N of SARS-CoV Urbani: unit not given here
[2] = system: control sera (pooled serum of ten healthy LUMC hospital workers; commercial negative donor pooled serum from the Dutch bloodbank); type: binding, human; parameters: Binding of Control serum LUMC to linear peptides / Binding of Control serum Blood-bank to linear peptides / Binding of Control serum LUMC to looped peptides / Binding of Control Serum Blood-Bank to Looped peptides / Binding of Control serum LUMC to linear peptides of the protein M of SARS-CoV Urbani / Binding of Control serum Blood-bank to linear peptides of the protein M of SARS-CoV Urbani / Binding of Control serum LUMC to looped peptides of the protein M of SARS-CoV Urbani / Binding of Control Serum Blood-Bank to Looped peptides of the protein M of SARS-CoV Urbani: unit not given here
[3] = system: rabbit serum obtained by immunizing a rabbit with the SARS-CoV strain Frankfurt 1; type: binding; parameters: Binding of a rabbit serum to linear peptides / Binding of a rabbit serum to looped peptides / Rabbit serum linear peptides / Rabbit serum looped peptides / Binding of a rabbit serum to linear peptides of protein N of SARS-CoV Urbani (Rabbit serum linear peptides) / Binding of a rabbit serum to looped/cyclic peptides of protein N of SARS-CoV Urbani (Rabbit serum looped peptides): unit not given here

LAVFQSATKIIALNK
Binding of serum 1a to linear peptides of protein X1 of SARS-CoV Urbani [1]: 0.7
Binding of serum 1a to looped/cyclic peptide (PEPSCAN-ELISA) [1]: 0.5
Binding of serum 1b to linear peptides of protein X1 of SARS-CoV Urbani [1]: 0.5
Binding of serum 1b to looped/cyclic peptide (PEPSCAN-ELISA) [1]: 0.4
Binding of serum 2 to linear peptides of protein X1 of SARS-CoV Urbani [1]: 0.5
Binding of serum 2 to looped/cyclic peptide (PEPSCAN-ELISA) [1]: 0.5
Binding of serum 6 to linear peptides of protein X1 of SARS-CoV Urbani [1]: 0.6
Binding of serum 6 to looped/cyclic peptide (PEPSCAN-ELISA) [1]: 0.6
Binding of serum 37 to linear peptides of protein X1 of SARS-CoV Urbani [1]: 0.6
Binding of serum 37 to looped/cyclic peptide (PEPSCAN-ELISA) [1]: 0.5
Binding of serum 62 to linear peptides of protein X1 of SARS-CoV Urbani [1]: 0.5
Binding of serum 62 to looped/cyclic peptide (PEPSCAN-ELISA) [1]: 0.6
Binding of serum London to linear peptides of protein X1 of SARS-CoV Urbani [1]: 0.2
Binding of serum London to looped/cyclic peptide (PEPSCAN-ELISA) [1]: 0.7
Binding of serum SARS-green to linear peptides of protein X1 of SARS-CoV Urbani [1]: 0.3
Binding of serum SARS-green to looped/cyclic peptide (PEPSCAN-ELISA) [1]: 0.3
Binding of serum SARS-yellow to linear peptides of protein X1 of SARS-CoV Urbani [1]: 0.4
Binding of serum SARS-yellow to looped/cyclic peptide (PEPSCAN-ELISA) [1]: 0.5
Binding of Control Serum Blood-Bank to Looped peptides [2]: 0.5
Binding of Control serum Blood-bank to linear peptides [2]: 0.7
Binding of Control serum LUMC to linear peptides [2]: 0.6
Binding of Control serum LUMC to looped peptides [2]: 0.6
Binding of a rabbit serum to linear peptides [3]: 0.1
Binding of a rabbit serum to looped peptides [3]: 0.7

LCKHKKVSTNLCTHS
Recognition of the peptide by sera of SARS-CoV infected individuals, and form (linear, looped/cyclic) in which it is recognized [1]: recognized in linear form
Binding of Control Serum Blood-Bank to Looped peptides [2]: 0.3
Binding of Control serum Blood-bank to linear peptides [2]: 0.8
Binding of Control serum LUMC to linear peptides [2]: 0.7
Binding of Control serum LUMC to looped peptides [2]: 0.4
Binding of a rabbit serum to linear peptides [3]: 0.3
Binding of a rabbit serum to looped peptides [3]: 0.3

LCWKCKSKNPLLYDA
Binding of serum 1a to looped/cyclic peptide (PEPSCAN-ELISA) [1]: 0.8
Binding of serum 1b to looped/cyclic peptide (PEPSCAN-ELISA) [1]: 0.5
Binding of serum 2 to looped/cyclic peptide (PEPSCAN-ELISA) [1]: 0.7
Binding of serum 6 to looped/cyclic peptide (PEPSCAN-ELISA) [1]: 0.8
Binding of serum 37 to looped/cyclic peptide (PEPSCAN-ELISA) [1]: 0.7
Binding of serum 62 to looped/cyclic peptide (PEPSCAN-ELISA) [1]: 0.8
Binding of serum London to looped/cyclic peptide (PEPSCAN-ELISA) [1]: 0.3
Binding of serum SARS-green to looped/cyclic peptide (PEPSCAN-ELISA) [1]: 0.3
Binding of serum SARS-yellow to looped/cyclic peptide (PEPSCAN-ELISA) [1]: 0.7
Recognition of the peptide by sera of SARS-CoV infected individuals, and form (linear, looped/cyclic) in which it is recognized [1]: recognized in linear form
Binding of Control Serum Blood-Bank to Looped peptides [2]: 0.8
Binding of Control serum Blood-bank to linear peptides [2]: 0.7
Binding of Control serum LUMC to linear peptides [2]: 0.7
Binding of Control serum LUMC to looped peptides [2]: 0.8
Binding of a rabbit serum to linear peptides [3]: 0.3
Binding of a rabbit serum to looped peptides [3]: 0.8

LDVIISSIVRQLFKP
Binding of serum 1a to linear peptides of protein X3 of SARS-CoV Urbani [1]: 0.8
Binding of serum 1a to looped/cyclic peptides of protein X3 of SARS-CoV Urbani [1]: 0.6
Binding of serum 1b to linear peptides of protein X3 of SARS-CoV Urbani [1]: 0.3
Binding of serum 1b to looped/cyclic peptides of protein X3 of SARS-CoV Urbani [1]: 0.3
Binding of serum 2 to linear peptides of protein X3 of SARS-CoV Urbani [1]: 0.9
Binding of serum 2 to looped/cyclic peptides of protein X3 of SARS-CoV Urbani [1]: 0.5
Binding of serum 6 to linear peptides of protein X3 of SARS-CoV Urbani [1]: 0.3
Binding of serum 6 to looped/cyclic peptides of protein X3 of SARS-CoV Urbani [1]: 0.4
Binding of serum 37 to linear peptides of protein X3 of SARS-CoV Urbani [1]: 0.7
Binding of serum 37 to looped/cyclic peptides of protein X3 of SARS-CoV Urbani [1]: 0.5
Binding of serum 62 to linear peptides of protein X3 of SARS-CoV Urbani [1]: 0.6
Binding of serum 62 to looped/cyclic peptides of protein X3 of SARS-CoV Urbani [1]: 0.5
Binding of serum London to linear peptides of protein X3 of SARS-CoV Urbani [1]: 0.5
Binding of serum London to looped/cyclic peptides of protein X3 of SARS-CoV Urbani [1]: 0.2
Binding of serum SARS-green to linear peptides of protein X3 of SARS-CoV Urbani [1]: 0.4
Binding of serum SARS-green to looped/cyclic peptides of protein X3 of SARS-CoV Urbani [1]: 0.2
Binding of serum SARS-yellow to linear peptides of protein X3 of SARS-CoV Urbani [1]: 0.1
Binding of serum SARS-yellow to looped/cyclic peptides of protein X3 of SARS-CoV Urbani [1]: 0.3
Binding of Control Serum Blood-Bank to Looped peptides of the protein X3 of SARS-CoV Urbani [2]: 0.7
Binding of Control serum Blood-bank to linear peptides of the protein X3 of SARS-CoV Urbani [2]: 0.6
Binding of Control serum LUMC to linear peptides of the protein X3 of SARS-CoV Urbani [2]: 0.4
Binding of Control serum LUMC to looped peptides of the protein X3 of SARS-CoV Urbani [2]: 0.8
Rabbit serum linear peptides [3]: 0.2
Rabbit serum looped peptides [3]: 0.0

LEQWNLVIGFLFLAW
Binding of serum 1a to linear peptides of protein M of SARS-CoV Urbani [1]: 0.6
Binding of serum 1a to looped/cyclic peptides of protein M of SARS-CoV Urbani [1]: 0.6
Binding of serum 1b to linear peptides of protein M of SARS-CoV Urbani [1]: 0.4
Binding of serum 1b to looped/cyclic peptides of protein M of SARS-CoV Urbani [1]: 0.3
Binding of serum 2 to linear peptides of protein M of SARS-CoV Urbani [1]: 0.6
Binding of serum 2 to looped/cyclic peptides of protein M of SARS-CoV Urbani [1]: 0.7
Binding of serum 6 to linear peptides of protein M of SARS-CoV Urbani [1]: 0.5
Binding of serum 6 to looped/cyclic peptides of protein M of SARS-CoV Urbani [1]: 0.5
Binding of serum 37 to linear peptides of protein M of SARS-CoV Urbani [1]: 0.6
Binding of serum 37 to looped/cyclic peptides of protein M of SARS-CoV Urbani [1]: 0.7
Binding of serum 62 to linear peptides of protein M of SARS-CoV Urbani [1]: 0.7
Binding of serum 62 to looped/cyclic peptides of protein M of SARS-CoV Urbani [1]: 0.6
Binding of serum London to linear peptides of protein M of SARS-CoV Urbani [1]: 0.4
Binding of serum London to looped/cyclic peptides of protein M of SARS-CoV Urbani [1]: 0.2
Binding of serum SARS-green to linear peptides of protein M of SARS-CoV Urbani [1]: 0.3
Binding of serum SARS-green to looped/cyclic peptides of protein M of SARS-CoV Urbani [1]: 0.3
Binding of serum SARS-yellow to linear peptides of protein M of SARS-CoV Urbani [1]: 0.1
Binding of serum SARS-yellow to looped/cyclic peptides of protein M of SARS-CoV Urbani [1]: 0.6
Binding of Control Serum Blood-Bank to Looped peptides of the protein M of SARS-CoV Urbani [2]: 0.6
Binding of Control serum Blood-bank to linear peptides of the protein M of SARS-CoV Urbani [2]: 0.6
Binding of Control serum LUMC to linear peptides of the protein M of SARS-CoV Urbani [2]: 0.3
Binding of Control serum LUMC to looped peptides of the protein M of SARS-CoV Urbani [2]: 0.5
Rabbit serum linear peptides [3]: 0.2
Rabbit serum looped peptides [3]: 0.4

— US20070128217A1 (priority 2003, published 2007)
